Measured values: patent publication US11332438B2, “Creatine prodrugs, compositions and methods of use thereof” (Ultragenyx Pharmaceutical Inc., priority 2017, dated 2022)

Assays:
[1] = test system: Phenocell CrT deficient neurons (iPSC-derived human neurons); assay: Creatine prodrug uptake and d3-creatine release in Phenocell CrT deficient neurons (Table 4B); assay type: cell-based; details: 2 hours
Protocol: Human neurons were obtained by differentiation of iPSC-derived neural stem cells for 14 days. The iPSCs were obtained from Phenocell Corporation. Neurons were cultured and differentiated to Day 10 and then frozen in liquid nitrogen. Neurons were thawed and replated at 1×10^6 per well of viable cells on poly-ornithine/laminin coated plates in 2 ml medium per well. Differentiation in complete Neurol medium with 2 ng/ml FGF2 was carried out for 4 additional days with a complete medium change (90% of medium) on Day 12. Activin A (20 ng/ml final conc.) was spiked into the cultures on Day 11 and Day 13. […] In parallel, compounds were incubated in medium alone to assess chemical stability of parent prodrug and metabolites. At the end of the 2 hour incubation, supernatants were collected and frozen at −80 C. Neurons in 6 well plates were washed gently 3× with HBSS and frozen at −80° C. Cell lysates were obtained by addition of 130 μl/well 10 mM Tris pH 7.4 with complete Mini protease inhibitors and scraping of wells. Plates were kept on ice during processing. Lysates were homogenized by hand briefly with a green pestle in 1.5 ml centrifuge tubes and then vortexed at high speed for 5 seconds. Lysates were centrifuged at 13,000 g, 10 minutes, 4 C and supernatants (cytosol fraction) were transferred in a new tube. A crash solution constituted of 80% acetonitrile and 20% water with bucetin, d5-Cr (internal standard) was added at 4:1 volume to volume to 50 ul of all samples for a total volume of 250 μL. Then plate was spun at 4000 rpm, 10 minutes, […] Samples were transferred to a new plate and frozen at −80 C prior to analysis by LC-MS/MS (Table 4B).

[2] = Plasma stability, human plasma; assay type: in vitro ADME; details: 37 °C, read-out: Plasma Stability Human t1/2
Protocol: (§1) The stabilities of creatine prodrugs can be evaluated in one or more in vitro systems using a variety of preparations following methods known in the art. Experimental conditions useful for the in vitro studies are described in Table 1. Prodrug is added to each preparation in triplicate. […]
(§2) Protocol for plasma stability for early screen macrocycles (Method A):
(§3) Frozen plasma was thawed by placing at 37° C. quickly and centrifuged at 3,000 rpm for 8 minutes to remove clots. Then the supernatant was pipetted and pooled as the plasma to be used in the experiment. The plasma was placed on ice until used. The test compounds and reference compounds spiking solution was prepared as a 2.5 mM test compounds spiking solution A: Add 20 μL of 10 mM test compounds stock solution to 60 μL DMSO. 0.1 mM Spiking solution B was prepared: Add 40 μL of spiking solution A to 960 μL of […] Sodium phosphate buffer with 0.5% BSA. […] For 0-min, 400 μL of ACN containing IS was added to the wells of 0-min plate and then 90 μL of plasma was added. […] 50 μL of the supernatant was transferred from each well into a 96-well sample plate containing 120 μL of ultra pure water (Millipore, ZMQS50F01) and analyzed by LC/MS.
(§4) Protocol for plasma stability (Method B):
(§5) The frozen plasma was thawed in a 37° C. water bath and then, if needed, adjusted to pH=7.4 then preheated in a 37° C. incubator. The test article was dissolved in 10% DMSO/water and spiked into plasma pre-plated into 96 well plates at a final concentration of 1 μM. Discrete incubations were performed at 37° C. and included 5 time points: t=0, 2, 5, 15, and 30 min. Samples were then crashed with 4× volume, ice cold 20% water/80% acetonitrile and spun at 4000 g for 10 mins. The supernatant was dried down and reconstituted with water and analyzed by LC-MS/MS. The half life in minute was calculated.

[3] = Plasma stability, mouse plasma; assay type: in vitro ADME; details: 37 °C, read-out: Plasma Stability Mouse t1/2
Protocol: as §1, §2, §3, §4, §5

[4] = Liver microsome stability, human; assay type: in vitro ADME; details: liver microsomes, read-out: Microsome Stability Human t1/2
Protocol: as §1
(§6) Protocol for Microsomal Stability:
(§7) For reference compound, a 500 μM spiking solution was prepared: add 10 μL of 10 mM DMSO stock solution into 190 μL ACN. […] For test compound, a 5 mM spiking solution was prepared: add 10 μL of 10 mM DMSO stock solution into 10 μL ACN. […] NADPH stock solution (6 mM) was prepared by dissolving NADPH into buffer 0.1 M Potassium Phosphate buffer, 1.0 mM EDTA, pH 7.4. […] For 0-min, 135 μL of ACN containing IS was added to the wells of 0-min plate and then 15 μL of NADPH stock solution (6 mM) was added. 15 μL of NADPH stock solution (6 mM) was added to the samples designated as 0-, 5-, 10-, 20-, 30-min, 60-min; 15 μL of buffer 0.1 M Potassium Phosphate buffer, 1.0 mM EDTA, pH 7.4, was added to the samples designated as 60-min without NADPH. At 5-min, 10-min, 20-min, and 30-min, 60-min 135 μL of ACN containing IS was added to the wells of corresponding plates, respectively, to stop the reaction. […] 50 μL of the supernatant from each well was transferred into a 96-well sample plate containing 50 μL of ultra pure water (Millipore, ZMQS50FOI) and analyzed by LC/MS.

[5] = Liver microsome stability, mouse; assay type: in vitro ADME; details: liver microsomes, read-out: Microsome Stability Mouse t1/2
Protocol: as §1, §6, §7

[6] = Chemical stability in phosphate buffered saline (PBS); assay type: physicochemical; details: 50 μM prodrug
Protocol: (§8) Chemical stability of creatine prodrugs in phosphate buffered saline (PBS), simulated intestinal fluid (SIF) without pancreatin, simulated gastric fluid (SGF) without pepsin were determined by LC-UV, LC-CAD, LC-UV-CAD or LC-MS/MS as appropriate. Creatine prodrugs of the present disclosure (50 μM) were incubated at 37° C. according to described protocols and prodrug levels were compared between t=0, t=15, t=60, and t=120 mins by peak area ratio to determine the percentage remained at t=120 mins (2 h).
(§9) Protocol for PBS, SIF and SGF stability for screening:
(§10) Prodrugs (50 μM) were incubated in PBS, FaSSIF (Biorelevant) or FaSSGF (Biorelevant) at 37° C.

[7] = Chemical stability in simulated gastric fluid (SGF) without pepsin; assay type: physicochemical; details: 50 μM prodrug
Protocol: as §8, §9, §10

In the case of [2H]C([2H])([2H])N1CC(=O)OC(C)CCCCCCCCCCC(=O)NC1=N (centres unmarked) [Compound M], the “Prodrug concentration in the cell cytosol” value (shortened to “Prodrug concentration”) ([1]; Study No. 2, 100 μM) is reported as “BLOQ” and the “Prodrug concentration” value ([1]; Study No. 2, 500 μM) is reported as “BLOQ”.
In the case of [2H]C([2H])([2H])N1CC(=O)OC(C)(C)CCCCCCCCC(=O)NC1=N [Compound HH, 5-imino-4-trideuteriomethyl-16,16-Dimethyl-1-oxa-4,6-diazacyclohexadecane-2,7-dione], the “Prodrug concentration” value ([1]; Study No. 3, 50 μM) is reported as 0.088 nmoles/mg protein and the “d3-Creatine concentration in the cell cytosol” value (“d3-Creatine concentration” for short) ([1]; Study No. 3, 50 μM) is reported as “BLOQ”.
For [2H]C([2H])([2H])N1CC(=O)OC(CC)CCCCCCCC(=O)NC1=N (centres unmarked) [Compound V, 15-ethyl-5-imino-4-(methyl-d3)-1-oxa-4,6-diazacyclopentadecane-2,7-dione], the “Prodrug concentration” value ([1]; Study No. 3, 50 μM) was “BLOQ” and the “d3-Creatine concentration” value ([1]; Study No. 3, 50 μM) was “BLOQ”.
For [2H]C([2H])([2H])N1CC(=O)OCCCCCCC(=O)NC1=N [Compound EE, 5-imino-4-trideuteriomethyl-1-oxa-4,6-diazacyclotridecane-2,7-dione], the “Prodrug concentration” value ([1]; Study No. 3, 50 μM) was “BLOQ” and the “d3-Creatine concentration” value ([1]; Study No. 3, 50 μM) was “BLOQ”.
With [2H]C([2H])([2H])N(CC(=O)[O-])C(=N)NC(=O)CCCCCCCCCCC.[Na+] [Compound 31] the half-life ([2]; Table 2A) was > 3 h, the half-life ([3]; Table 2A) was > 3 h and the half-life at 10 μM ([4]; pH 7.4, Table 2A) was 0.983 h. For the same compound, the half-life at 10 μM ([5]; pH 7.4, Table 2A) was > 2.42 h, the “Chemical Stability PBS % T0 at 2 hours at 37 °C.” value (from here on “Chemical Stability PBS % T0”) ([6]; Table 2A) was 98% and the “Chemical Stability SGF, no enzyme % T0 at 2 hours at 37 °C.” value (from here on “Chemical Stability SGF, no enzyme % T0”) ([7]; Table 2A) was 98%.
With [2H]C([2H])([2H])N1CC(=O)N=C1NC(=O)CCCCCCCCCC [Compound 49] the half-life ([2]; Table 2A) was > 3 h, the half-life ([3]; Table 2A) was 0.783 h and the half-life at 10 μM ([4]; pH 7.4, Table 2A) was 0.4 h. For the same compound, the half-life at 10 μM ([5]; pH 7.4, Table 2A) was < 0.0833 h, the “Chemical Stability PBS % T0” value ([6]; Table 2A) was 87% and the “Chemical Stability SGF, no enzyme % T0” value ([7]; Table 2A) was 62%.
For [2H]C([2H])([2H])N(CC(=O)[O-])C(=N)NC(=O)CCCCCCC.[Na+] [Compound 38], the half-life ([2]; Table 2A) was > 3 h, the half-life ([3]; Table 2A) was > 3 h and the half-life at 10 μM ([4]; pH 7.4, Table 2A) was > 2.42 h. For the same compound, the half-life at 10 μM ([5]; pH 7.4, Table 2A) was > 2.42 h, the “Chemical Stability PBS % T0” value ([6]; Table 2A) was 101% and the “Chemical Stability SGF, no enzyme % T0” value ([7]; Table 2A) was 99%.
For [2H]C([2H])([2H])N(CC(=O)[O-])C(=N)NC(=O)CCCCCCCCCC(C)O.[Na+] (centres unmarked) [Compound 57], the half-life ([2]; Table 2B) was > 3 h, the half-life ([3]; Table 2B) was > 3 h and the half-life at 10 μM ([4]; pH 7.4, Table 2B) was > 1.5 h. The half-life at 10 μM ([5]; pH 7.4, Table 2B) was > 1.5 h, the “Chemical Stability PBS % T0” value ([6]; Table 2B) was 78% and the “Chemical Stability SGF, no enzyme % T0” value ([7]; Table 2B) was 89%.
In the case of [2H]C([2H])([2H])N(CC(=O)OCC)/C(=N\C(=O)OC(C)(C)C)NC(=O)CCCCCCCCCC [Compound 47], the half-life ([2]; Table 2A) is reported as 2.82 h, the half-life ([3]; Table 2A) is reported as < 0.0833 h and the half-life at 10 μM ([4]; pH 7.4, Table 2A) is reported as 0.267 h. For the same compound, the half-life at 10 μM ([5]; pH 7.4, Table 2A) was 0.0833 h, the “Chemical Stability PBS % T0” value ([6]; Table 2A) was 55% and the “Chemical Stability SGF, no enzyme % T0” value ([7]; Table 2A) was 32%.
